Inconclusive results and toxic doses are left out. Rule for the calls: active = survival T/C of 150% or more; inactive = T/C below 125% in these data.
Tested on: P388 leukemia ip, CD2F1 mice, survival T/C
Test: NCI In Vivo Anticancer Drug Screen. Data for tumor model P388 Leukemia (intraperitoneal) in CD2F1 (CDF1) mice
Conditions: endpoint: median survival time, higher = longer survival
Outline: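 Mice carrying the transplanted tumor received test compound or vehicle. Survival was recorded in each group, and the value is the treated-group measurement divided by that of the vehicle-treated control group.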

[1] = dose: 50.0 mg/kg/injection, schedule: Q01DX009 (ip), vehicle: saline with Tween-80
[2] = dose: 100.0 mg/kg/injection, schedule: Q01DX009 (ip), vehicle: saline with Tween-80
[3] = dose: 200.0 mg/kg/injection, schedule: Q01DX009 (ip), vehicle: saline with Tween-80
[4] = dose: 12.5 mg/kg/injection, schedule: Q01DX009 (ip), vehicle: Klucel (hydroxypropylcellulose) (HPC)
[5] = dose: 25.0 mg/kg/injection, schedule: Q01DX009 (ip), vehicle: Klucel (hydroxypropylcellulose) (HPC)

Measured: T/C

COc1cccc(/C=N/NC(=O)c2c(-c3ccccc3)noc2C)c1O
inactive: [1] 99 % of control | [2] 100 % of control | [3] 110 % of control

N.O=S(=O)(O)O.[Al]
inactive: [1] 100 % of control | [2] 100 % of control

[Cl][Sn]([c]1cccc2ccccc12)[c]1cccc2ccccc12
inactive: dose: 1.56 mg/kg/injection, schedule: Q01DX005 (ip), vehicle: Klucel (hydroxypropylcellulose) (HPC) 101 % of control | dose: 3.12 mg/kg/injection, schedule: Q01DX005 (ip), vehicle: Klucel (hydroxypropylcellulose) (HPC) 120 % of control | dose: 6.25 mg/kg/injection, schedule: Q01DX005 (ip), vehicle: Klucel (hydroxypropylcellulose) (HPC) 124 % of control | dose: 12.5 mg/kg/injection, schedule: Q01DX005 (ip), vehicle: Klucel (hydroxypropylcellulose) (HPC) 109 % of control

CSCCC(NC(=O)c1cnc2ccccc2c1)C(N)=O (centres undefined)
inactive: dose: 60.0 mg/kg/injection, schedule: Q01DX005 (ip), vehicle: saline with Tween-80 103 % of control | dose: 120.0 mg/kg/injection, schedule: Q01DX005 (ip), vehicle: saline with Tween-80 97 % of control | dose: 240.0 mg/kg/injection, schedule: Q01DX005 (ip), vehicle: saline with Tween-80 87 % of control

COC(=O)C1c2ccc(OC)c(OC)c2C(=O)N2CCc3cc(OC)c(OC)cc3C12 (centres undefined)
inactive: dose: 50.0 mg/kg/injection, schedule: Q04DX003 (ip), vehicle: distilled water + Tween-80 93 % of control | dose: 100.0 mg/kg/injection, schedule: Q04DX003 (ip), vehicle: distilled water + Tween-80 96 % of control | dose: 200.0 mg/kg/injection, schedule: Q04DX003 (ip), vehicle: distilled water + Tween-80 87 % of control | dose: 400.0 mg/kg/injection, schedule: Q04DX003 (ip), vehicle: distilled water + Tween-80 110 % of control

COc1ccc2nccc(NCCCN3CCN(CCCNc4ccnc5ccc(OC)cc45)CC3)c2c1
inactive: dose: 3.75 mg/kg/injection, schedule: Q01DX005 (ip), vehicle: water 104 % of control | dose: 7.5 mg/kg/injection, schedule: Q01DX005 (ip), vehicle: water 107 % of control | dose: 15.0 mg/kg/injection, schedule: Q01DX005 (ip), vehicle: water 99 % of control

C#CC(C(O)c1ccccc1)N1CCOCC1 (centres undefined)
inactive: dose: 100.0 mg/kg/injection, schedule: Q04DX003 (ip), vehicle: saline 104 % of control | dose: 200.0 mg/kg/injection, schedule: Q04DX003 (ip), vehicle: saline 102 % of control | dose: 400.0 mg/kg/injection, schedule: Q04DX003 (ip), vehicle: saline 101 % of control

O=C(NCCN(C(=O)C(F)(F)F)c1ccc(F)cc1)C(F)(F)F
inactive: [1] 100 % of control | [2] 100 % of control | [3] 101 % of control

C=CCCCC1(c2ccccc2)C(=O)Oc2ccccc21 (centres undefined)
inactive: dose: 50.0 mg/kg/injection, schedule: Q01DX005 (ip), vehicle: saline with Tween-80 98 % of control | dose: 100.0 mg/kg/injection, schedule: Q01DX005 (ip), vehicle: saline with Tween-80 89 % of control | dose: 200.0 mg/kg/injection, schedule: Q01DX005 (ip), vehicle: saline with Tween-80 90 % of control

N#CSc1ccc2nc(NC(NC(=O)c3ccccc3)C(Cl)(Cl)Cl)sc2c1 (centres undefined)
inactive: dose: 6.25 mg/kg/injection, schedule: Q01DX009 (ip), vehicle: Klucel (hydroxypropylcellulose) (HPC) 102 % of control | [4] 108 % of control | [5] 101 % of control

CC1=Nc2ccccc2NC(=O)C1
inactive: [4] 99 % of control | [5] 108 % of control | dose: 50.0 mg/kg/injection, schedule: Q01DX009 (ip), vehicle: Klucel (hydroxypropylcellulose) (HPC) 100 % of control | dose: 100.0 mg/kg/injection, schedule: Q01DX009 (ip), vehicle: Klucel (hydroxypropylcellulose) (HPC) 108 % of control

CC(=O)Oc1ccc(OC(C)=O)c2c1CC=CC2
inactive: dose: 50.0 mg/kg/injection, schedule: Q01DX005 (ip), vehicle: Klucel (hydroxypropylcellulose) (HPC) 105 % of control | dose: 100.0 mg/kg/injection, schedule: Q01DX005 (ip), vehicle: Klucel (hydroxypropylcellulose) (HPC) 105 % of control | dose: 200.0 mg/kg/injection, schedule: Q01DX005 (ip), vehicle: Klucel (hydroxypropylcellulose) (HPC) 100 % of control

CC(C)C[C@H]1C(=O)N2CCC[C@H]2[C@]2(O)O[C@](NC(=O)[C@@H]3C=C4c5cccc6[nH]c(Br)c(c56)C[C@H]4N(C)C3)(C(C)C)C(=O)N12
inactive: [1] 100 % of control | [2] 100 % of control | [3] 100 % of control

C=C1C(=O)OC2C1C(OC(=O)/C(=C/CO)CO)CC1(CO1)C1CC=C(C)C21 (centres undefined)
inactive: dose: 0.94 mg/kg/injection, schedule: Q01DX005 (ip), vehicle: Klucel (hydroxypropylcellulose) (HPC) 111 % of control | dose: 1.87 mg/kg/injection, schedule: Q01DX005 (ip), vehicle: Klucel (hydroxypropylcellulose) (HPC) 107 % of control | dose: 3.75 mg/kg/injection, schedule: Q01DX005 (ip), vehicle: Klucel (hydroxypropylcellulose) (HPC) 108 % of control

— PubChem BioAssay AID330 (DTP/NCI, 2004)
